Data: patent US20250213549A1, “COMPOSITION COMPRISING NICOTINAMIDE, NICOTINAMIDE PRECURSORS, NICOTINAMIDE METABOLITES OR COMBINATIONS THEREOF FOR PREVENTING OR REDUCING ONE OR MORE POST-ACUTE SYMPTOMS OF INFECTIOUS DISEASES” (CONARIS Research Institute AG, priority 2022, published 2025)

How the values were obtained:
[1] = tested on: antibodies directed against the spike (S) protein of SARS-CoV-2; experiment: Anti-S antibody levels (AProof Duo Test ELISA) at 6-month follow-up, COVit-2 trial; format: in vivo, human
Description: (§1) In the monocentric, randomized, double-blind, prospective, placebo-controlled dietary intervention trial COVit-2 (DRKS00021214; NCT04751604) conducted at the Department of Internal Medicine I of the University Medical Center Schleswig-Holstein, Campus Kiel (Germany), outpatients with early symptomatic COVID-19 (up to 7 days after their first positive SARS-CoV-2 PCR test) in domestic quarantine were recruited from February 2021 to January 2022. As the vaccinations against SARS-CoV-2 became available to the broader public only after several hundred patients had already been recruited into the COVit-2 trial, partly or fully vaccinated patients were excluded from participation to maintain the same inclusion population and ensure formal comparability of all patients within the trial. However, there is no reason or evidence to assume that the fundamental metabolic and microbiota-targeting effects of nicotinamide could be any different in symptomatic COVID-19 patients with or without prior vaccination.
(§2) For details of the trial, see Wätzig & Schreiber 2021, PCT/EP2021/083138. Patients were randomized to oral self-administration (once daily with breakfast for 28 days) of either a combination of two different nicotinamide tablets (one conventional 500-mg immediate-release nicotinamide tablet and one novel 500-mg controlled-ileocolonic-release nicotinamide [CICR-NAM]tablet, which ensures prolonged and continuous intestinal exposure to nicotinamide) or matching placebo tablets. The entire trial was conducted remotely. Patients registered online and were contacted by the study team to check their eligibility and to supply the written patient information and informed consent forms. After informed consent, patients were called for baseline data acquisition (week 0) and subsequently at week 2, week 4 and week 6. The queried baseline information included personal and demographic data, smoking status, comorbidities, concomitant administration of dietary supplements or medicaments as well as COVID-19 symptoms. At weeks 2, 4 and 6, regular intake of the trial supplements and concomitant supplements and medicaments, respectively, was queried as well as the current COVID-19 symptoms and disease course.
For the antibody level measurements, the time between the positive SARS-CoV-2 PCR test and the date of blood sampling for antibody analysis as well as, if applicable, the intervals between one or more subsequent vaccinations against SARS-CoV-2 and the blood sampling date were recorded. Antibody levels were measured using the AProof Duo Test (Adversis Pharma, now AP Diagnostics; Leipzig, Germany). In this test, dried blood spot samples are rehydrated and analysed by ELISAs detecting antibodies directed against the nucleocapsid (N) or spike (S) protein of SARS-CoV-2. Antibodies against the N protein are analysed to evaluate immunity generated only by SARS-CoV-2 infection. After infection with SARS-CoV-2, levels of antibodies against the S protein can represent both the consequences of infection (if no additional vaccination is performed) or of the combined humoral immunity generated by infection and subsequent vaccination(s). Between the 6-week observation period of the acute infection and the follow-up after at least 6 months, many trial participants had been vaccinated against SARS-CoV-2. Anti-N antibody levels were quantified as percent of the signal of a positive control consisting of an anti-N antibody pool from five donors collected at different time points starting 2 weeks after PCR-confirmed infection with SARS-CoV-2. This anti-N antibody pool was diluted in the negative control medium at a fixed ratio. The detection was considered negative if below 20% of the positive control, borderline for 20-30% and positive if above 30%. Anti-S antibody protein levels were quantified as binding antibody units per milliliter (BAU/mL; according to the WHO International Standard for anti-SARS-CoV-2 immunoglobulin [human][NIBSC code 20/136]). […]

[2] = tested on: COVID-19 patients (PCS symptoms); experiment: Generalised Anxiety Disorder 7 (GAD-7) at 6-month follow-up, COVit-2 pilot population; format: in vivo, human; conditions: pilot population n=50
Description: (§3) In the monocentric, randomized, double-blind, prospective, placebo-controlled dietary intervention trial COVit-2 (DRKS00021214; NCT04751604) conducted at the Department of Internal Medicine I of the University Medical Center Schleswig-Holstein, Campus Kiel (Germany), outpatients with early symptomatic COVID-19 (up to 7 days after their first positive SARS-CoV-2 PCR test) in domestic quarantine were recruited from February 2021 to January 2022. […]
(§4) Approximately 6 months after infection, patients were contacted for follow-up interviews and a large battery of questionnaires and tests including antibody level measurements. […] A validated smell test (University of Pennsylvania Smell Identification Test™; Sensonics/MediSense) was performed by the patient and recorded as patient-reported outcome by a paper questionnaire. Questionnaires on olfactory and gustatory abilities (incl. the Self-reported Mini Olfactory Questionnaire, Self-MOQ, and the Questionnaire of Olfactory Disorders, QOD), respiration (Multidimensional Dyspnea Profile, MDP), mental state (Patient Health Questionnaire Depression, PHQ-8; Generalised Anxiety Disorder 7, GAD-7; Perceived Stress Scale, PSS; Brief Resilience Scale, BRS), sleep quality (Pittsburgh Sleep Quality Index, PSQI) and fatigue (Multidimensional Fatigue Inventory, MFI) were recorded as patient-reported outcomes by paper questionnaires. […]

[3] = tested on: COVID-19 patients; experiment: Impaired sense of taste at 6 months after COVID-19, COVit-2 risk factor population; format: in vivo, human
Description: as §2, with “At weeks 2, 4 and 6, regular intake of the trial supplements and concomitant supplements and medicaments, respectively, was queried as well as the current COVID-19 symptoms and disease course.” left out
(§5) Approximately 6 months after infection, patients were contacted for follow-up interviews and a large battery of questionnaires and tests including antibody level measurements. […] A validated smell test (University of Pennsylvania Smell Identification Test™; Sensonics/MediSense) was performed by the patient and recorded as patient-reported outcome by a paper questionnaire. […]

[4] = tested on: COVID-19 patients (PCS symptoms); experiment: Perceived Stress Scale (PSS) at 6-month follow-up, COVit-2 pilot population; format: in vivo, human; conditions: pilot population n=50
Description: as §3, §4

[5] = tested on: COVID-19 patients; conditions: week 2; of 92 patients treated with nicotinamide
[6] = tested on: COVID-19 patients; experiment: Impaired sense of taste in acute COVID-19 (patient interviews, change to baseline), COVit-2 risk factor population; format: in vivo, human; conditions: for Impaired sense of taste: Persistence (no change), frequency / Impaired sense of taste: Resolution of impairment (return to normal), frequency / Impaired sense of taste: Worsening (new impairment), frequency: number of patients
Description: as §1, §2
(§6) The COVit-2 trial (see Example 2) was expanded to a total of n=900 randomized patients. Of these, n=500 patients had at least one characteristic or underlying medical condition associated with an increased risk of developing severe illness from COVID-19, which was the population that had benefited most from nicotinamide supplementation in the acute phase of the disease (Wätzig & Schreiber 2021, PCT/EP2021/083138) and is hereinafter referred to as ‘risk factor population’.
(§7) In contrast, in the final analysis of n=500 patients of the risk factor population (the primary analysis population for acute COVID-19 in the COVit-2 trial), there was rather a trend favouring placebo, as evidenced by the rates of resolved, constant or newly occurring impairment shown in Table 2 to Table 5 below.
(§8) Here, the efficacy variables “impaired sense of smell” (yes/no) and “impaired sense of taste” (yes/no) from patient interviews represent the broadest and most sensitive approach, as other more specific tests or questions miss aspects of smell or taste that are not explicitly queried and thus may fail to detect significant differences. In the acute phase of the COVit-2 trial, these variables were analyzed using change to baseline, considered as resolution (symptom present at baseline but not at week x), persistence (no change compared to baseline) or worsening (symptom present at week x but not at baseline). The frequency of patients with symptom resolution, persistence or worsening for all weeks by treatment group was compared using the Cochran-Mantel-Haenszel test. Post-hoc tests for each week were calculated using the Fisher Exact test with Benjamini & Hochberg adjustment for multiple testing. The Woolfe test was performed to test for homogeneity of odds ratios across time. […]

[7] = tested on: COVID-19 patients (PCS symptoms); experiment: University of Pennsylvania Smell Identification Test (UPSIT) at 6-month follow-up, COVit-2 pilot population; format: in vivo, human; conditions: pilot population n=50
Description: as §3, §4

[8] = tested on: COVID-19 patients; experiment: Impaired sense of smell at 6 months after COVID-19, COVit-2 risk factor population; format: in vivo, human
Description: as §2, with “At weeks 2, 4 and 6, regular intake of the trial supplements and concomitant supplements and medicaments, respectively, was queried as well as the current COVID-19 symptoms and disease course.” left out
as §5

[9] = tested on: COVID-19 patients; conditions: acute phase, baseline until Week 6, mainly at week 2; interim analysis n=402; cited from earlier work
[10] = tested on: antibodies directed against the nucleocapsid (N) protein of SARS-CoV-2; experiment: Anti-N antibody levels (AProof Duo Test ELISA) at 6-month follow-up, COVit-2 trial; format: in vivo, human
[11] = tested on: COVID-19 patients (PCS symptoms); experiment: Patient Health Questionnaire Depression (PHQ-8) at 6-month follow-up, COVit-2 pilot population; format: in vivo, human; conditions: pilot population n=50
Description: as §3, §4

[12] = tested on: COVID-19 patients (PCS); experiment: PCS score at 6 months after COVID-19 in PCS risk factor population, COVit-2; conditions: PCS risk factor population (more than 5 predictors), N = 70
Description: In this PCS score, 12 long-term symptom complexes (fatigue, cough/wheezing, neurological ailments, joint/muscle pain, ear-nose-throat ailments, gastrointestinal ailments, sleeping disturbance, exercise intolerance, infection signs, chemosensory deficits, chest pain and dermatological ailments) are combined with different weights.
In order to characterize a relevant subpopulation of the risk factor population as defined above that was additionally at risk for the development of PCS, baseline characteristics and symptoms of all available patients of the placebo population (n=425) were used to identify predictors for a PCS score of ≥5 at month 6 with a significance threshold of P<0.05. These predictors were the following: • medical history: chronic obstructive pulmonary disease, organ transplantation, depression, other chronic diseases, permanent intake of medication; • symptoms from the onset of COVID-19 until the trial baseline: shortness of breath, whistling/wheezing breathing, dizziness, vomiting, conjunctivitis; • at baseline: shortness of breath, whistling/wheezing breathing, dizziness, conjunctivitis, chills, muscle pain, limb pain, limitation of activity (a score of 2 in the WHO scale of COVID-19 severity developed in 2020; https://apps.who.int/iris/rest/bitstreams/1266940/retrieve, last accessed on 20 Mar. […]

[13] = tested on: COVID-19 patients; experiment: Impaired sense of smell in acute COVID-19 (patient interviews, change to baseline), COVit-2 risk factor population; format: in vivo, human; conditions: for Impaired sense of smell: Persistence (no change), frequency / Impaired sense of smell: Resolution of impairment (return to normal), frequency / Impaired sense of smell: Worsening (new impairment), frequency: number of patients
Description: as §1, §2, §6, §7, §8

[14] = tested on: COVID-19 patients (PCS symptoms); experiment: Cognition test T3MS at 6-month follow-up, COVit-2 pilot population; format: in vivo, human
Description: as §3, §4

[15] = first 50 patients per trial arm
[16] = n=50, negative if below 22 BAU/mL
[17] = n=50, positive if above 44 BAU/mL
[18] = 6 months after COVID-19, N = 236
[19] = acute phase, baseline until Week 6
[20] = n=50, negative if below 20% of positive control
[21] = n=50, positive if above 30% of positive control

## NC(=O)c1cccnc1 [Nicotinamide, nicotinamide]
[1]; [15]
  Anti-S antibodies, median: 813 BAU/mL
[1]; [16]
  Anti-S antibodies, % negative: 2%
  Anti-S antibodies, n negative: 1
[1]; [17]
  Anti-S antibodies, % positive: 94%
  Anti-S antibodies, n positive: 47
[1]; patients with at least one characteristic or condition associated with increased risk of severe COVID-19
  Anti-S antibodies, median: 1,121 BAU/mL
[2]
  median GAD-7 score: 3
[3]; [18]
  Impaired sense of taste, % of patients: 8.05%
[3]; after six months
  effect on frequency of impaired sense of taste: significantly reduced frequencies
[4]
  median PSS score: 24
[5]
  shortness of breath: patients recovered: 56
[6]; Week 2
  Impaired sense of taste: Persistence (no change), frequency: 170
  Impaired sense of taste: Resolution of impairment (return to normal), frequency: 56
  Impaired sense of taste: Worsening (new impairment), frequency: 22
[6]; Week 4
  Impaired sense of taste: Persistence (no change), frequency: 159
  Impaired sense of taste: Resolution of impairment (return to normal), frequency: 74
  Impaired sense of taste: Worsening (new impairment), frequency: 15
[6]; Week 6
  Impaired sense of taste: Persistence (no change), frequency: 157
  Impaired sense of taste: Resolution of impairment (return to normal), frequency: 83
  Impaired sense of taste: Worsening (new impairment), frequency: 8
[6]; [19]
  effect on impaired sense of taste: no beneficial effect
[7]
  proportion of patients with strong microsmia/hyposmia (UPSIT score <26): 2%
[8]; [18]
  Impaired sense of smell, % of patients: 11.02%
[8]; after six months
  effect on frequency of impaired sense of smell: significantly reduced frequencies
[9]
  benefit with regard to parameters of physical performance: biologically and statistically significant benefit
[10]; [15]
  Anti-N antibodies, median: 10% + control
[10]; [20]
  Anti-N antibodies, % negative: 66%
  Anti-N antibodies, n negative: 33
[10]; [21]
  Anti-N antibodies, % positive: 28%
  Anti-N antibodies, n positive: 14
[11]
  median PHQ-8 score: 4
[12]
  PCS score, mean: 3.66
[13]; Week 2
  Impaired sense of smell: Persistence (no change), frequency: 155
  Impaired sense of smell: Resolution of impairment (return to normal), frequency: 61
  Impaired sense of smell: Worsening (new impairment), frequency: 32
[13]; Week 4
  Impaired sense of smell: Persistence (no change), frequency: 150
  Impaired sense of smell: Resolution of impairment (return to normal), frequency: 78
  Impaired sense of smell: Worsening (new impairment), frequency: 20
[13]; Week 6
  Impaired sense of smell: Persistence (no change), frequency: 141
  Impaired sense of smell: Resolution of impairment (return to normal), frequency: 92
  Impaired sense of smell: Worsening (new impairment), frequency: 15
[13]; [19]
  effect on impaired sense of smell: no beneficial effect
[14]; patients with increased risk of developing severe COVID-19
  proportion of patients with mild cognitive impairment (T3MS score <89): 10%
[14]; pilot population n=50
  proportion of patients with mild cognitive impairment (T3MS score <89): 8%
